Values quoted from earlier work as cited in patent US11931369B1, “Compositions and methods for treating epilepsy” (POVIVA CORP, priority 2023, dated 2024).
Where two headings read alike, the source gives them in different places.

Compound: C=C(C)[C@@H]1CCC(C)=C[C@H]1c1c(O)cc(CCCCC)cc1O [Cannabidiol, 2-[(1R,6R)-6-Isopropenyl-3-methylcyclohex-2-en-1-yl]-5-pentylbenzene-1,3-diol]
- Plasma concentration on Day 22 at target CBD dose, 5 hours, Mean (5 mg/kg/day (N = 10)): 72.1 ng/mL
- Plasma concentration on Day 22 at target CBD dose, Pre-dose, Mean (5 mg/kg/day (N = 10)): 23.0 ng/mL
- Plasma concentration on Day 22 at target CBD dose, […], Mean (5 mg/kg/day (N = 10)): 130 ng/mL
- Plasma concentration on Day 1 at starting CBD dose, 5 hours, Mean (5 mg/kg/day group (N = 10)): 10.0 ng/mL
- Plasma concentration on Day 1 at starting CBD dose, Pre-dose, Mean (5 mg/kg/day group (N = 10)): 0 ng/mL
- Plasma concentration on Day 1 at starting CBD dose, […], Mean (5 mg/kg/day group (N = 10)): 37.6 ng/mL
- Plasma concentration on Day 22 at target CBD dose, 5 hours, Mean (10 mg/kg/day (N = 8)): 288 ng/mL
- Plasma concentration on Day 22 at target CBD dose, Pre-dose, Mean (10 mg/kg/day (N = 8)): 62.1 ng/mL
- Plasma concentration on Day 22 at target CBD dose, […], Mean (10 mg/kg/day (N = 8)): 242 ng/mL
- Plasma concentration on Day 1 at starting CBD dose, 5 hours, Mean (10 mg/kg/day group (N = 8)): 11.3 ng/mL
- Plasma concentration on Day 1 at starting CBD dose, Pre-dose, Mean (10 mg/kg/day group (N = 8)): 0 ng/mL
- Plasma concentration on Day 1 at starting CBD dose, […], Mean (10 mg/kg/day group (N = 8)): 34.4 ng/mL
- Plasma concentration on Day 22 at target CBD dose, 5 hours, Mean (20 mg/kg/day (N = 9)): 308 ng/mL
- Plasma concentration on Day 22 at target CBD dose, Pre-dose, Mean (20 mg/kg/day (N = 9)): 121 ng/mL
- Plasma concentration on Day 22 at target CBD dose, […], Mean (20 mg/kg/day (N = 9)): 380 ng/mL
- Plasma concentration on Day 1 at starting CBD dose, 5 hours, Mean (20 mg/kg/day group (N = 9)): 25.3 ng/mL
- Plasma concentration on Day 1 at starting CBD dose, Pre-dose, Mean (20 mg/kg/day group (N = 9)): 0 ng/mL
- Plasma concentration on Day 1 at starting CBD dose, […], Mean (20 mg/kg/day group (N = 9)): 29.3 ng/mL
